According to PMC8911971, “Detection of Bacterial α-L-Fucosidases with an Ortho-Quinone Methide-Based Probe and Mapping of the Probe-Protein Adducts” (Molecules, 2022):

Columns and labels:
Type in all cases: biochemical
[1] = target: T1, BfFucH (Bacteroides fragilis, UniProt Q5LAD6); assay: block of AH062 probe labelling, blot chemiluminescence; conditions: 100 uM inhibitor preincubated, 350 uM AH062, PBS pH 7.4; competitive
T1 construct: gene BF9343_3156; codon-optimized gene in pET47b+, expressed in E. coli BL21(DE3), Ni-NTA and Superdex 200 purified; about 50 kDa
T1 sequence (Q5LAD6 21-434): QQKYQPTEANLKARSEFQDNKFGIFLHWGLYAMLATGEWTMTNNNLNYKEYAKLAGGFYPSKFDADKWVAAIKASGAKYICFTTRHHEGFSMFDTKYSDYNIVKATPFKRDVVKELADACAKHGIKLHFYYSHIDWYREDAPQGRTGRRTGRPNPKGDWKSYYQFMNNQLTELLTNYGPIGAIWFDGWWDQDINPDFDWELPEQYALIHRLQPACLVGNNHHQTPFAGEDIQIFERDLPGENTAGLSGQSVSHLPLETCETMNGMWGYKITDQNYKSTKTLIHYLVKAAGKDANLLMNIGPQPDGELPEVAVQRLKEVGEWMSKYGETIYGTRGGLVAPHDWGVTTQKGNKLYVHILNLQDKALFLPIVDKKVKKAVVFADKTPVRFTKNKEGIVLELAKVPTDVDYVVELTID

[2] = target: T2, TmFuc (Thermotoga maritima, UniProt Q9WYE2); assay: pepsin digest LC-MS/MS of probe adducts; conditions: covalent after turnover to quinone methide; adducts at W80 or W105, outside the active site
T2 construct: gene TM_0306; recombinant, commercial (Megazyme)
T2 sequence (Q9WYE2 1-449): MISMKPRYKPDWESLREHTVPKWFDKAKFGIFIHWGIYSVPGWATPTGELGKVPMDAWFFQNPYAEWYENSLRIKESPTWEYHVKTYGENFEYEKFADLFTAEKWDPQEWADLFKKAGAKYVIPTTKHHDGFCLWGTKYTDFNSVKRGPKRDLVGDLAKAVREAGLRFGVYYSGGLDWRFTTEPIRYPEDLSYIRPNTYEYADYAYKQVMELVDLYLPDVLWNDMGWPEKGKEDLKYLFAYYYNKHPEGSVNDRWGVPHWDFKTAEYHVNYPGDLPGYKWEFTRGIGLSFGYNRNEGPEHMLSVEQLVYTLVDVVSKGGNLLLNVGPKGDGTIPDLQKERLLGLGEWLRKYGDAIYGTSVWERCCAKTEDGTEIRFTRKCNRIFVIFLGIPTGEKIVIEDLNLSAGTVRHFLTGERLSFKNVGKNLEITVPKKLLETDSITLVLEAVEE

[3] = target: T3, AfcA (Bifidobacterium bifidum, UniProt Q6JV24); assay: probe labelling, click biotinylation, blot chemiluminescence; conditions: 350 uM probe, PBS pH 7.4, 37 C or room temperature (Figure 1); covalent after turnover to quinone methide
T3 construct: catalytic GH95 fragment, residues 577-1474, C-terminal GGSGGSHHHHHHHH tag; pMAL-c4x-1-H(RBS)+ in E. coli BL21(DE3), Ni-NTA and Superdex 200 purified
T3 sequence (Q6JV24 entry or part of it): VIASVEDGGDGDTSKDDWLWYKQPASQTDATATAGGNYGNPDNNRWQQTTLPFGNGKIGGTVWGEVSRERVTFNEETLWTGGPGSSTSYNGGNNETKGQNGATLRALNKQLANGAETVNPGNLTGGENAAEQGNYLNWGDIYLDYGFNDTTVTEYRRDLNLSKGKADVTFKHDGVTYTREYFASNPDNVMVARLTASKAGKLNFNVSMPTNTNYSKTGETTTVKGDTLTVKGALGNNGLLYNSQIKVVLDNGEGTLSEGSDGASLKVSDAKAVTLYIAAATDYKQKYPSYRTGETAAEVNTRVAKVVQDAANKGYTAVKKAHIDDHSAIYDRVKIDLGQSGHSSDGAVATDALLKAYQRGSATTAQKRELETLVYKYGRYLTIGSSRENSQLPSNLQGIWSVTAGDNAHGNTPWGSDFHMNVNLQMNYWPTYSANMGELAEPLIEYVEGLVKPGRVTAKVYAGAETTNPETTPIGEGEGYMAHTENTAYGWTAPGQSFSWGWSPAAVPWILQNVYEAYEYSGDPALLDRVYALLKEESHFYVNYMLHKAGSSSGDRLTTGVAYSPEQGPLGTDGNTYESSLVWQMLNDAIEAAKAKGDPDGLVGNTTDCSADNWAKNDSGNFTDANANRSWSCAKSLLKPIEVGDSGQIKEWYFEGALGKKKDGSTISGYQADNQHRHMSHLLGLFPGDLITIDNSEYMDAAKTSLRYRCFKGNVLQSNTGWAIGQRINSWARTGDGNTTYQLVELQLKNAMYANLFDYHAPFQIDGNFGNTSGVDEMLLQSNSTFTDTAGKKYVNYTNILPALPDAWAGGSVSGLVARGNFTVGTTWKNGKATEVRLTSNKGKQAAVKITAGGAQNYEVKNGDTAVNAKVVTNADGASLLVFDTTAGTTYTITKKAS

| SMILES | block of AH062 probe labelling, blot chemiluminescence [1] | pepsin digest LC-MS/MS of probe adducts [2] | probe labelling, click biotinylation, blot chemiluminescence [3] |
| --- | --- | --- | --- |
| C[C@@H]1NC[C@@H](O)[C@H](O)[C@@H]1O [L-fuconojirimycin] | distinguishing the active from the inhibited enzyme (prepared by preincubation with the competitive inhibitor L-fuconojirimycin |  |  |
| C[C@@H]1O[C@@H](Oc2ccc(NC(=O)CCOCCOCCOCCN=[N+]=[N-])cc2CF)[C@@H](O)[C@H](O)[C@@H]1O [compound 12, 3-(2-(2-(2-azidoethoxy)ethoxy)ethoxy)-N-(3-(fluoromethyl)-4-(((2S,3S,4R,5S,6S)-3,4,5-trihydroxy-6-methyltetrahydro-2H-pyran-2-yl)oxy)phenyl)propanamide] |  | the quinone methide generated from AH062 had labeled either tryptophan W80 or W105 | the probe detected the enzyme in a concentration-dependent manner |
